pIC50: −log10 of the molar value.
Molecular target: T1, Dimer of Gag-Pol polyprotein [489-587] (Human immunodeficiency virus 1, UniProt P12497)
T1 construct: 489-587
Experiment: Protease Inhibition Assay
Experimental: The inhibitory activities of the compounds toward HIV-1 PR were determined by sodium dodecyl sulfate-polyacrylamide gel electrophoresis (SDS-PAGE) assay. The IC50 values of active compounds were determined using the partially purified protease and the synthetic substrate Ac-Ser-Gln-AsnTyr-Pro-Ile-Val-NH2.

SMILES | pIC50
Cc1c(O)cccc1C(=O)N[C@@H](Cc1ccccc1)[C@H](O)C(=O)N1C[C@@H](Cl)C[C@H]1C(=O)NC(C)(C)C [(3-Hydroxy-2-methylbenzoyl)-(2(S)-hydroxy-3(S)-amino-phenylbutanoyl)-4(S)-Cl-Pro-NH-t-Bu] | 9.05
Cc1c(O)cccc1C(=O)N[C@@H](Cc1cc(F)cc(F)c1)[C@H](O)C(=O)N1C[C@@H](Cl)C[C@H]1C(=O)NC(C)(C)C [(3-Hydroxy-2-methylbenzoyl)-{2(S)-hydroxy-3(S)-amino-4-(3,5-difluoro)-phenylbutanoyl}-4(S)-Cl-Pro-NH-t-Bu] | 9.10
Cc1c(O)cccc1C(=O)N[C@@H](Cc1cccc(C(F)(F)F)c1)[C@H](O)C(=O)N1C[C@@H](Cl)C[C@H]1C(=O)NC(C)(C)C [(3-Hydroxy-2-methylbenzoyl)-{2(S)-hydroxy-3(S)-amino-4-(3-trifluoromethyl)-phenylbutanoyl}-4(S)-Cl-Pro-NH-t-Bu] | 9.30
COc1ccc(C[C@H](NC(=O)c2cccc(O)c2C)[C@H](O)C(=O)N2C[C@@H](Cl)C[C@H]2C(=O)NC(C)(C)C)cc1 [(3-Hydroxy-2-methylbenzoyl)-{2(S)-hydroxy-3(S)-amino-4-(4-methoxy)-phenylbutanoyl}-4(S) -Cl-Pro-NH-t-Bu] | 9.05
Cc1c(O)cccc1C(=O)N[C@@H](Cc1ccc(-c2ccccc2)cc1)[C@H](O)C(=O)N1C[C@@H](Cl)C[C@H]1C(=O)NC(C)(C)C [(3-Hydroxy-2-methylbenzoyl)-{2(S)-hydroxy-3(S)-amino-4-(4-phenyl)-phenylbutanoyl}-4(S)-Cl-Pro-NH-t-Bu] | 9.05
Cc1c(O)cccc1C(=O)N[C@@H](Cc1cccc2ccccc12)[C@H](O)C(=O)N1C[C@@H](Cl)C[C@H]1C(=O)NC(C)(C)C [(3-Hydroxy-2-methylbenzoyl)-{2(S)-hydroxy-3(S)-amino-4-(alpha-naphtyl)-butanoyl}-4(S)-Cl-Pro-NH-t-Bu] | 8.82
Cc1c(O)cccc1C(=O)N[C@@H](Cc1ccc2ccccc2c1)[C@H](O)C(=O)N1C[C@@H](Cl)C[C@H]1C(=O)NC(C)(C)C [(3-Hydroxy-2-methylbenzoyl)-{2(S)-hydroxy-3(S)-amino-4-(beta-naphtyl)-butanoyl}-4(S)-Cl-Pro-NH-t-Bu] | 9.00
Cc1c(O)cc(F)cc1C(=O)N[C@@H](Cc1cccc(C(F)(F)F)c1)[C@H](O)C(=O)N1C[C@@H](Cl)C[C@H]1C(=O)NC(C)(C)C [(5-Fluoro-3-hydroxy-2-methylbenzoyl)-{2(S)-hydroxy-3(S)-amino-4-(3-trifluoromethyl)-phenylbutanoyl}-4(S)-Cl-Pro-NH-t-Bu] | 8.68
Cc1c(O)cc(F)cc1C(=O)N[C@@H](Cc1ccc2sccc2c1)[C@H](O)C(=O)N1C[C@@H](Cl)C[C@H]1C(=O)NC(C)(C)C [(5-Fluoro-3-hydroxy-2-methylbenzoyl)-{2(S)-hydroxy-3(S)-amino-4-(benzo[b]thiophene-5-yl)-butanoyl}-4(S)-Cl-Pro-NH-t-Bu] | 8.72

Reference: BindingDB's records for doi:10.1016/s0968-0896(99)00127-3 (Sankyo, 1999)
